This note sets out measurements from paper PMC8779134 (2022).

For assay [1], the system named is biotin-labeled Apt (DNA, aptamer) CATGCTTCCCCAGGGAGATGGAGGTCTTTTTGGTTGTTGGTGGGGGAATCTTTTGGTATTGAGGAACATG
The assay is described as follows: magnetic bead ELISA, competition (A450). The settings on record: 37 °C, biotinylated complementary strand as competitor.

In assay [2] the test system is Apt (DNA, aptamer) CATGCTTCCCCAGGGAGATGGAGGTCTTTTTGGTTGTTGGTGGGGGAATCTTTTGGTATTGAGGAACATG
The assay can be described thus: AuNP colorimetric assay (A620/A520). The settings on record: Na+ 40 mM (NaCl added after binding), room temperature, 400 nM aptamer.

The subject of assay [3] is Apt-11 (DNA, aptamer) CTTCCCCAGGGAGATGGAGGTCTTTTTGGTTGTTGGTGGGGGAAT
The assay can be described thus: ITC. The settings on record: ultrapure water, 25 °C; 500 μM aptamer into 41.6 μM α-amanitin; fit unphysical (N, ΔH).

Assay [4] relates to Apt-12 (DNA, aptamer) GGGAGATGGAGGTCTT
The assay is described as follows: AuNP colorimetric assay (A520). Conditions: Na+ 40 mM (NaCl added after binding); room temperature; 1 μg/mL α-amanitin; apparent; text b16 prints 132.1 ± 32.99 nM instead.

Assay [5] concerns Apt-11 (DNA, aptamer) CTTCCCCAGGGAGATGGAGGTCTTTTTGGTTGTTGGTGGGGGAAT
The assay is described as follows: AuNP colorimetric assay (A520). The settings on record: Na+ 40 mM (NaCl added after binding); room temperature; aptamer 0-1600 nM titrated into 1 μg/mL α-amanitin; apparent; table unit misprinted Nm.

Assay [6] has as its system Apt-8 (DNA, aptamer) CATGCTTCCCCAGGGAGATGGAGGTCTTTTTGGTTGTTGGTGGGGGAATCTTTTGGTA
The assay can be described thus: ITC. Conditions: ultrapure water, 25 °C; 500 μM aptamer titrated into 41.6 μM α-amanitin.

The test system of assay [7] is Apt-10 (DNA, aptamer) CCCCAGGGAGATGGAGGTCTTTTTGGTTGTTGGTGGGGGAATCTTTTGGTATTGAGGAA
The assay is described as follows: ITC. Conditions: ultrapure water, 25 °C; 500 μM aptamer into 41.6 μM α-amanitin; printed ΔG positive.

For assay [8], the system named is Apt-2 (DNA, aptamer) CCAGGGAGATGGAGGTCTTTTTGGTTGTTGGTGGGGGAATCTTTTGGTATTGAGGAACATG
The assay is described as follows: AuNP colorimetric assay (A520). Conditions: Na+ 40 mM (NaCl added after binding); room temperature; aptamer 0-1600 nM titrated into 1 μg/mL α-amanitin; apparent; table unit misprinted Nm.

For assay [9], the system named is Apt-8 (DNA, aptamer) CATGCTTCCCCAGGGAGATGGAGGTCTTTTTGGTTGTTGGTGGGGGAATCTTTTGGTA
The assay can be described thus: AuNP colorimetric assay (A520). Conditions: Na+ 40 mM (NaCl added after binding); room temperature; aptamer 0-1600 nM titrated into 1 μg/mL α-amanitin; apparent; table unit misprinted Nm.

For assay [10], the system named is Apt (DNA, aptamer) CATGCTTCCCCAGGGAGATGGAGGTCTTTTTGGTTGTTGGTGGGGGAATCTTTTGGTATTGAGGAACATG
The assay can be described thus: ITC. Conditions: ultrapure water, 25 °C; 500 μM aptamer titrated into 41.6 μM α-amanitin.

In assay [11] the test system is Apt-12 (DNA, aptamer) GGGAGATGGAGGTCTT
The assay is described as follows: ITC. Conditions: ultrapure water, 25 °C; 500 μM aptamer titrated into 41.6 μM α-amanitin.

Assay [12] relates to Apt-10 (DNA, aptamer) CCCCAGGGAGATGGAGGTCTTTTTGGTTGTTGGTGGGGGAATCTTTTGGTATTGAGGAA
The assay can be described thus: AuNP colorimetric assay (A520). Conditions: Na+ 40 mM (NaCl added after binding); room temperature; aptamer 0-1600 nM titrated into 1 μg/mL α-amanitin; apparent; table unit misprinted Nm.

For assay [13], the system named is Apt (DNA, aptamer) CATGCTTCCCCAGGGAGATGGAGGTCTTTTTGGTTGTTGGTGGGGGAATCTTTTGGTATTGAGGAACATG
The assay is described as follows: AuNP colorimetric assay (A520). The settings on record: Na+ 40 mM (NaCl added after binding); room temperature; aptamer 0-1600 nM titrated into 1 μg/mL α-amanitin; apparent; table unit misprinted Nm.

Assay [14] concerns Apt-2 (DNA, aptamer) CCAGGGAGATGGAGGTCTTTTTGGTTGTTGGTGGGGGAATCTTTTGGTATTGAGGAACATG
The assay can be described thus: ITC. Conditions: ultrapure water, 25 °C; 500 μM aptamer titrated into 41.6 μM α-amanitin.

[15] abbreviates: highest concentration 500 ng/mL.

*1 amine or outer side, *2 acyl side, *3 side chain or, on linkers, in order; H or OH if unused. Where a SMILES comes first, the peptide text is derived from it. Bridges are numbered along the chain shown (N, C = ends). [ ]: non-standard residue; d: D form. ξ: configuration not given here. ξTrp(2-yl) = O=C(C(Cc1c([*:3])[nH]c2ccccc12)N[*:1])[*:2]; X2 = O=C(C(CC(O)(CO)CO)N[*:1])[*:2]; X1 = CC(O)(CO)CC(N[*:1])C(=O)[*:2]; ξAsp(3ξ-OH) = NC(C(=O)O)C(O)C(=O)O; Hyp = O=C(O)[CH]1C[CH](O)CN1

Take `CC1NC(=O)C2CC(O)CN2C(=O)C2CSc3[nH]c4ccccc4c3CC(NC1=O)C(=O)NC(CC(C)(O)CO)C(=O)NC(C(C)C)C(=O)NC(C(O)C(=O)O)C(=O)N2` (centres unmarked) (cyclo([ξAsp(3ξ-OH)]C[Hyp]A[ξTrp(2-yl)][X1]V); thioether 2-5; configuration not given here): the binding entry in assay [1] (setting [15]) is on record as “no”.

Take `CC1NC(=O)C2CC(O)CN2C(=O)C2CSc3[nH]c4ccccc4c3CC(NC1=O)C(=O)NC(CC(O)(CO)CO)C(=O)NC(C(C)C)C(=O)NC(C(O)C(=O)O)C(=O)N2` (centres unmarked) (cyclo([ξAsp(3ξ-OH)]C[Hyp]A[ξTrp(2-yl)][X2]V); thioether 2-5; configuration not given here): the binding entry in assay [1] (setting [15]) was “no”.

On to `C[C@@H]1Cc2c(Cl)cc(C(=O)N[C@@H](Cc3ccccc3)C(=O)O)c(O)c2C(=O)O1`, for which the binding result in [2] (highest concentration 1 μg/mL) is recorded as “no”.

Turning to `CCCC[C@@H](C)[C@@H](OC(=O)C[C@@H](CC(=O)O)C(=O)O)[C@H](C[C@@H](C)C[C@H](O)CCCC[C@@H](O)C[C@H](O)[C@H](C)N)OC(=O)C[C@@H](CC(=O)O)C(=O)O`, the binding entry in assay [2] (highest concentration 1 μg/mL) is reported as “no”.

`CC[C@H](C)[C@@H]1NC(=O)CNC(=O)[C@@H]2Cc3c([nH]c4cc(O)ccc34)[S@](=O)C[C@H](NC(=O)CNC1=O)C(=O)N[C@@H](CC(=O)O)C(=O)N1C[C@H](O)C[C@H]1C(=O)N[C@@H]([C@@H](C)[C@@H](O)CO)C(=O)N2`: the binding entry in assay [1] (500 ng/mL) and in [2] (1 μg/mL β-amanitin) was “yes” each time.

For the compound `CC[C@H](C)[C@@H]1NC(=O)CNC(=O)[C@@H]2Cc3c([nH]c4cc(O)ccc34)[S@](=O)C[C@H](NC(=O)CNC1=O)C(=O)N[C@@H](CC(N)=O)C(=O)N1C[C@H](O)C[C@H]1C(=O)N[C@@H]([C@@H](C)[C@@H](O)CO)C(=O)N2`, the Kd in assay [3] was found to be 54.6 µM; in [4], 0.1852 ± 0.06087 µM; in assay [5] it was 0.1844 ± 0.03708 µM; in assay [6], 11.9 µM; in assay [7], 68 µM; in assay [8], 0.0379 ± 0.006053 µM. The Kd was 0.1309 ± 0.0311 µM in assay [9]; 3.1 µM in assay [10]; 84.7 µM in [11]; 0.1087 ± 0.01823 µM in assay [12]; 0.0336 ± 0.003928 µM in assay [13]; 46.9 µM in assay [14]. Besides, the binding entry in assay [1] (0.1-6 μg/mL) is “yes”.

In the case of `CC[C@H](C)[C@@H]1NC(=O)CNC(=O)[C@@H]2Cc3c([nH]c4cc(O)ccc34)[S@](=O)C[C@H](NC(=O)CNC1=O)C(=O)N[C@@H](CC(N)=O)C(=O)N1C[C@H](O)C[C@H]1C(=O)N[C@@H]([C@@H](C)[C@H](C)O)C(=O)N2`, in assay [1] (setting [15]), the binding entry is “no”.
